Tests used:
[1] = Inhibition of calcium channel (unknown origin); parameters: species or system Homo sapiens
[2] = Inhibition of sodium channel (unknown origin); parameters: species or system Homo sapiens
[3] = target: Beta-secretase 1 (Homo sapiens, UniProt P56817); assay: Inhibition of BACE1 (unknown origin)
[4] = target: Voltage-gated inwardly rectifying potassium channel KCNH2 (Homo sapiens, UniProt Q12809); assay: Inhibition of hERG; assay type: toxicity
[5] = Efflux ratio of apparent permeability in MDCK-MDR1 cells; assay type: ADME, cell-based, Canis lupus familiaris; conditions: dog
[6] = Dissociation constant, pKa of the compound by potentiometric titration method; assay type: physicochemical
[7] = Apparent permeability in MDCK-MDR1 cells; assay type: ADME, cell-based, Canis lupus familiaris; conditions: dog

Sequence of Beta-secretase 1 (P56817 whole entry): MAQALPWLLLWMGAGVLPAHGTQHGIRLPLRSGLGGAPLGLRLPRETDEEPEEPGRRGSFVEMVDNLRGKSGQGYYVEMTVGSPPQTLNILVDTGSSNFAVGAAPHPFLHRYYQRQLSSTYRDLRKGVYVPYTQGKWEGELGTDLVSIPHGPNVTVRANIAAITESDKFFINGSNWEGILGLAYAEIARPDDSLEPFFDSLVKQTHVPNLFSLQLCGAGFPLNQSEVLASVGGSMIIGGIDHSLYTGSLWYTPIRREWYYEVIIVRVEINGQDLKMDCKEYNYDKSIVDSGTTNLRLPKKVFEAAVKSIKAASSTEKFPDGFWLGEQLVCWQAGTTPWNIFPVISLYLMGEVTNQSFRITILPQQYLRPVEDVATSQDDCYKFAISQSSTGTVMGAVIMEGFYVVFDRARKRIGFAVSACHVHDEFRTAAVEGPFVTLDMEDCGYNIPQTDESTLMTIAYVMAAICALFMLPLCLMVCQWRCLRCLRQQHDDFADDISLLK
Sequence of Voltage-gated inwardly rectifying potassium channel KCNH2 (Q12809 whole entry): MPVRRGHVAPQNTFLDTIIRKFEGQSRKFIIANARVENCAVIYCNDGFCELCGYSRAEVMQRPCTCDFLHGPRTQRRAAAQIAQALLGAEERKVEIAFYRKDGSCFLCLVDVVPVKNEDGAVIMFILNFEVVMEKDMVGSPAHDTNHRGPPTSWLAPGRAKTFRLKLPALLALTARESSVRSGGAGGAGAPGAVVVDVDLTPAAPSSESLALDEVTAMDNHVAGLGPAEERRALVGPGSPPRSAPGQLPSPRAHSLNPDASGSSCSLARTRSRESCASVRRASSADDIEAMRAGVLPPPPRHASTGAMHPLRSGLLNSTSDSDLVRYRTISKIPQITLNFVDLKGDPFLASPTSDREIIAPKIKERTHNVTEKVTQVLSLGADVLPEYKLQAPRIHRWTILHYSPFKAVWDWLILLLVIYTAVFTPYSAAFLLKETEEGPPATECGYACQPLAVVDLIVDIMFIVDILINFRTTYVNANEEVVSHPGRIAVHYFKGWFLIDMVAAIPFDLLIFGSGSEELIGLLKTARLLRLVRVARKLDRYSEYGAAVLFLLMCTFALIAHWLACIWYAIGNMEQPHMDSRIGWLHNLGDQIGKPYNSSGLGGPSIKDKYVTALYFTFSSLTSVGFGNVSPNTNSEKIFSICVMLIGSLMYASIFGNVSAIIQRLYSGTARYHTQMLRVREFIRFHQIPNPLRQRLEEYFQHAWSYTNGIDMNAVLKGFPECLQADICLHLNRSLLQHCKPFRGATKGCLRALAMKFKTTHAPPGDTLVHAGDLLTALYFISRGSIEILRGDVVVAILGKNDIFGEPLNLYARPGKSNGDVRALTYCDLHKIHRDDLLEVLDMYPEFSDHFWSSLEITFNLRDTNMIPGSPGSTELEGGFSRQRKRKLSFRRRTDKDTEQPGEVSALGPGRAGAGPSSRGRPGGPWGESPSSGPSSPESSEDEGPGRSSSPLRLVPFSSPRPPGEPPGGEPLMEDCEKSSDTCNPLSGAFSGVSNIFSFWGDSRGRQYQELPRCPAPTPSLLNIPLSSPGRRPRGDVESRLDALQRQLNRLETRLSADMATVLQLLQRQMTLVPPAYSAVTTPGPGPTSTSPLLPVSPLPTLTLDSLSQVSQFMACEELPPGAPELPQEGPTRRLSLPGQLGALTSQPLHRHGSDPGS

| SMILES | IC50 [1] [nM] | IC50 [2] [nM] | IC50 [3] [nM] | IC50 [4] [nM] | efflux ratio [5] | pKa [6] | Papp [7] [×10⁻⁶ cm/s] |
| --- | --- | --- | --- | --- | --- | --- | --- |
| C[C@@]1(S(C)(=O)=O)CC[C@@](CF)(c2cc(NC(=O)c3cnc(OCF)cn3)ccc2F)N=C1N | > 10000 | 8510 |  |  |  |  |  |
| COc1cnc(-c2ccc(F)c([C@]3(C)CC[C@@](C)(C#N)C(N)=N3)c2)cn1 | 6610 | 4900 | 9.8 |  |  |  |  |
| CC1CC[C@@](CF)(c2cc(-c3cc4c(cn3)OC(F)(F)O4)ccc2F)N=C1N (stereo not given in full) | 1950 | 650 | 59 |  |  |  |  |
| COc1cnc(-c2ccc(F)c([C@]3(CF)CC[C@@](C)(C#N)C(N)=N3)c2)cn1 | > 10000 | > 10000 | 54 |  |  |  |  |
| COc1cnc(C(=O)Nc2ccc(F)c([C@@]3(C)N=C(N)[C@](C)(S(C)(=O)=O)C[C@@H]3F)c2)cn1 | > 10000 | > 10000 |  |  |  |  |  |
| CN(C)C(=O)[C@]1(C)CC[C@@](CF)(c2cc(-c3ccc(F)cn3)ccc2F)N=C1N | > 10000 | > 10000 | 66 | 8320 | 52 | 9.2 | 2.7 |
| C[C@@]1(S(C)(=O)=O)CC[C@@](CF)(c2nc(-c3cnc(OCF)cn3)ccc2F)N=C1N |  |  | 38 |  |  | 7.6 |  |
| CN(C)S(=O)(=O)[C@]1(C)CC[C@@](CF)(c2cc(-c3ccc(F)cn3)ccc2F)N=C1N | > 10000 | 2140 | 4 |  |  |  |  |
| C[C@@]1(c2cc(-c3cc4c(cn3)OC(F)(F)O4)ccc2F)CC[C@@](C)(S(=O)(=O)C(F)(F)F)C(N)=N1 | < 100 | 170 | 5.9 | > 10000 |  | 7.4 |  |
| COc1cnc(-c2ccc(F)c([C@]3(CF)CC[C@](C)(C#N)C(N)=N3)c2)cn1 | > 10000 | > 10000 | 851 |  |  |  |  |
| COc1cnc(-c2ccc(F)c([C@]3(C)CC[C@@](C)(S(C)(=O)=O)C(N)=N3)c2)cn1 | > 10000 | 8710 | 4 |  |  |  |  |
| COc1cnc(-c2ccc(F)c([C@]3(C(F)F)CC[C@@](C)(C#N)C(N)=N3)c2)cn1 | > 10000 | > 10000 | 12 | > 10000 | 15 | 6 | 54 |
| C[C@@]1(c2cc(NC(=O)c3ccc(F)cn3)ccc2F)CC[C@@](CF)(S(C)(=O)=O)C(N)=N1 | > 10000 | 6460 | 15 |  |  |  |  |
| C[C@@]1(c2cc(-c3ccc(Cl)cn3)ccc2F)CCC2(CC2)C(N)=N1 |  |  | 31 |  |  | > 11 |  |
| C[C@@]1(c2cc(-c3ccc(Cl)cn3)ccc2F)C[C@@H]2C[C@@H]2C(N)=N1 |  |  | 96 |  |  | > 11 |  |
| NC1=N[C@](CF)(c2cc(-c3cnc(OCF)cn3)ccc2F)CCC1(F)F | > 10000 | > 10000 | 8.9 |  |  |  |  |
| C[C@@]1(c2nc(-c3ccc(F)cn3)cs2)CC[C@@](C)(S(C)(=O)=O)C(N)=N1 |  |  | 25 |  | 22 | 7 | 37 |
| C[C@@]1(c2cc(-c3cnc(OCF)cn3)ccc2F)CCC(F)(F)C(N)=N1 | > 10000 | > 10000 | 12 |  |  |  |  |

Source: ChEMBL document CHEMBL5154668, “Modulating physicochemical properties of tetrahydropyridine-2-amine BACE1 inhibitors with electron-withdrawing groups: A systematic study” (Eur J Med Chem, 2022)
